Laboratory results reported in paper PMC8536124 (International Journal of Molecular Sciences, 2021).

How the values were obtained:
[1] = tested on: A549/ATCC; set-up: method as in earlier work; conditions: cited from earlier work
[2] = tested on: EKVX; set-up: method as in earlier work; conditions: cited from earlier work
[3] = tested on: HOP-62; set-up: method as in earlier work; conditions: cited from earlier work
[4] = tested on: HOP-92; set-up: method as in earlier work; conditions: cited from earlier work
[5] = tested on: NCI-H226; set-up: method as in earlier work; conditions: cited from earlier work
[6] = tested on: NCI-H23; set-up: method as in earlier work; conditions: cited from earlier work
[7] = tested on: NCI-H460; set-up: method as in earlier work; conditions: cited from earlier work
[8] = tested on: NCI-H522; set-up: method as in earlier work; conditions: cited from earlier work
[9] = tested on: NSC lung cancer; set-up: method as in earlier work; conditions: NSC lung cancer subpanel; read-out: GI50 MG_MID; cited from earlier work
[10] = tested on: COLO 205; set-up: method as in earlier work; conditions: cited from earlier work
[11] = tested on: HCC-2998; set-up: method as in earlier work; conditions: cited from earlier work
[12] = tested on: HCT-116; set-up: method as in earlier work; conditions: cited from earlier work
[13] = tested on: HCT-15; set-up: method as in earlier work; conditions: cited from earlier work
[14] = tested on: HT29; set-up: method as in earlier work; conditions: cited from earlier work
[15] = tested on: KM12; set-up: method as in earlier work; conditions: cited from earlier work
[16] = tested on: SW-620; set-up: method as in earlier work; conditions: cited from earlier work
[17] = tested on: SF-268; set-up: method as in earlier work; conditions: cited from earlier work
[18] = tested on: SF-295; set-up: method as in earlier work; conditions: cited from earlier work
[19] = tested on: SF-539; set-up: method as in earlier work; conditions: cited from earlier work
[20] = tested on: SNB-19; set-up: method as in earlier work; conditions: cited from earlier work
[21] = tested on: SNB-75; set-up: method as in earlier work; conditions: cited from earlier work
[22] = tested on: U251; set-up: method as in earlier work; conditions: cited from earlier work
[23] = tested on: CNS cancer; set-up: method as in earlier work; conditions: CNS cancer subpanel; read-out: GI50 MG_MID; cited from earlier work
[24] = tested on: LOX IMVI; set-up: method as in earlier work; conditions: cited from earlier work
[25] = tested on: MALME-3M; set-up: method as in earlier work; conditions: cited from earlier work
[26] = tested on: M14; set-up: method as in earlier work; conditions: cited from earlier work
[27] = tested on: MDA-MB-435; set-up: method as in earlier work; conditions: cited from earlier work
[28] = tested on: SK-MEL-2; set-up: method as in earlier work; conditions: cited from earlier work
[29] = tested on: SK-MEL-28; set-up: method as in earlier work; conditions: cited from earlier work
[30] = tested on: SK-MEL-5; set-up: method as in earlier work; conditions: cited from earlier work
[31] = tested on: UACC-257; set-up: method as in earlier work; conditions: cited from earlier work
[32] = tested on: UACC-62; set-up: method as in earlier work; conditions: cited from earlier work
[33] = tested on: Melanoma; set-up: method as in earlier work; conditions: Melanoma subpanel; read-out: GI50 MG_MID; cited from earlier work
[34] = tested on: IGROV1; set-up: method as in earlier work; conditions: cited from earlier work
[35] = tested on: OVCAR-3; set-up: method as in earlier work; conditions: cited from earlier work
[36] = tested on: OVCAR-4; set-up: method as in earlier work; conditions: cited from earlier work
[37] = tested on: OVCAR-5; set-up: method as in earlier work; conditions: cited from earlier work
[38] = tested on: OVCAR-8; set-up: method as in earlier work; conditions: cited from earlier work
[39] = tested on: NCI/ADR-RES; set-up: method as in earlier work; conditions: cited from earlier work
[40] = tested on: SK-OV-3; set-up: method as in earlier work; conditions: cited from earlier work
[41] = tested on: Ovarian cancer; set-up: method as in earlier work; conditions: Ovarian cancer subpanel; read-out: GI50 MG_MID; cited from earlier work
[42] = tested on: 786-0; set-up: method as in earlier work; conditions: cited from earlier work
[43] = tested on: A498; set-up: method as in earlier work; conditions: cited from earlier work
[44] = tested on: ACHN; set-up: method as in earlier work; conditions: cited from earlier work
[45] = tested on: CAKI-1; set-up: method as in earlier work; conditions: cited from earlier work
[46] = tested on: RXF 393; set-up: method as in earlier work; conditions: cited from earlier work
[47] = tested on: SN12C; set-up: method as in earlier work; conditions: cited from earlier work
[48] = tested on: UO-31; set-up: method as in earlier work; conditions: cited from earlier work
[49] = tested on: Renal Cancer; set-up: method as in earlier work; conditions: Renal cancer subpanel; read-out: GI50 MG_MID; cited from earlier work
[50] = tested on: PC-3; set-up: method as in earlier work; conditions: cited from earlier work
[51] = tested on: DU-145; set-up: method as in earlier work; conditions: cited from earlier work
[52] = tested on: Prostate cancer; set-up: method as in earlier work; conditions: Prostate cancer subpanel; read-out: GI50 MG_MID; cited from earlier work
[53] = tested on: MCF7; set-up: method as in earlier work; conditions: cited from earlier work
[54] = tested on: MDA-MB-31/ATCC; set-up: method as in earlier work; conditions: cited from earlier work
[55] = tested on: HS 578T; set-up: method as in earlier work; conditions: cited from earlier work
[56] = tested on: BT-549; set-up: method as in earlier work; conditions: cited from earlier work
[57] = tested on: T-47D; set-up: method as in earlier work; conditions: cited from earlier work
[58] = tested on: MDA-MB-468; set-up: method as in earlier work; conditions: cited from earlier work
[59] = tested on: Breast cancer; set-up: method as in earlier work; conditions: Breast cancer subpanel; read-out: GI50 MG_MID; cited from earlier work
[60] = tested on: NCI-60 cancer cell line panel; set-up: method as in earlier work; conditions: mean graph midpoint, full panel; read-out: GI50 MG_MID60; cited from earlier work
[61] = tested on: chorioallantoic membrane; conditions: in vivo
Source text: In this assay, the irritation potential may range from 0 to 21, with 0 being non-irritant and 21 being the most irritant. […] The irritation score was established according to Luepke scale: 0–0.9 indicates non-irritant, 1–4.9 indicates weakly irritant, 5–8.9 indicates moderately irritant, while 9–21 means strongly irritant (Table 6) [88, 89].
The in vivo Hen’s Egg Chorioallantoic Membrane Test (HET-CAM) assay determines a potential irritant effect on the vascular plexus of the chorioallantoic membrane [94]. The HET-CAM method was carried out following ICCVAM recommendations published in November 2016 in Appendix G and adapted to our conditions [88, 95, 96]. Thus, a volume of 300 µL of control or test solution was applied and the modifications produced at the CAM level were monitored by means of stereomicroscopy (Discovery 8 Stereomicroscope, Zeiss), registering significant images (Axio CAM 105 color, Zeiss), before application after 5 min of contact with the samples. All images were processed using Zeiss ZEN software, Gimp 2.8, and ImageJ software.
Negative control was represented by distilled water and solvent control DMSO 0.5%, and positive control by sodium lauryl sulphate (SLS) 0.5% in distillate water. The test substances were tested in concentrations of 1 µM.
Finally, the following reactions were: hemorrhage—H (blood vessel bleeding), vascular lysis—L (disintegration of blood vessels), coagulation—C (intra- or extra-vascular protein denaturizing). A variety of analysis methods may be used to assess irritancy potential of test substances. One analysis method that has been used extensively is an irritation score (IS). The formula used to generate an IS value is:(1) IS=5×301−Sec H/300+7×300−Sec L/300+9×301−Sec C/300 where: H = hemorrhage; L = vessel lysis; C = coagulation; hemorrhage time (Sec H) = onset of hemorrhage reactions on CAM (in seconds); lysis time (Sec L) = onset of vessel lysis on CAM (in seconds); coagulation time (Sec C) = onset of coagulation formation on CAM (in seconds). Means values are obtained. […] The IS values range on a scale between 0 and 21.

[62] = tested on: Colon Cancer; set-up: method as in earlier work; conditions: Colon Cancer subpanel; read-out: GI50 MG_MID; cited from earlier work
[63] = tested on: TK-10; set-up: method as in earlier work; conditions: cited from earlier work

SMILES: COc1cccc2c1C(=O)c1c(O)c3c(c(O)c1C2=O)C[C@@](O)(C(=O)CO)C[C@@H]3O[C@H]1C[C@H](N)[C@H](O)[C@H](C)O1 [DRB, doxorubicin]
- GI50 [1]: 60 nM
- GI50 [2]: 410 nM
- GI50 [3]: 70 nM
- GI50 [4]: 100 nM
- GI50 [5]: 50 nM
- GI50 [6]: 150 nM
- GI50 [7]: 20 nM
- GI50 [8]: 30 nM
- GI50 [9]: 110 nM
- GI50 [10]: 180 nM
- GI50 [11]: 260 nM
- GI50 [12]: 80 nM
- GI50 [13]: 6460 nM
- GI50 [14]: 120 nM
- GI50 [15]: 270 nM
- GI50 [16]: 90 nM
- GI50 [17]: 100 nM
- GI50 [18]: 100 nM
- GI50 [19]: 120 nM
- GI50 [20]: 40 nM
- GI50 [21]: 70 nM
- GI50 [22]: 40 nM
- GI50 [23]: 80 nM
- GI50 [24]: 70 nM
- GI50 [25]: 120 nM
- GI50 [26]: 180 nM
- GI50 [27]: 250 nM
- GI50 [28]: 170 nM
- GI50 [29]: 210 nM
- GI50 [30]: 80 nM
- GI50 [31]: 140 nM
- GI50 [32]: 120 nM
- GI50 [33]: 150 nM
- GI50 [34]: 170 nM
- GI50 [35]: 390 nM
- GI50 [36]: 370 nM
- GI50 [37]: 410 nM
- GI50 [38]: 100 nM
- GI50 [39]: 7160 nM
- GI50 [40]: 220 nM
- GI50 [41]: 1260 nM
- GI50 [42]: 130 nM
- GI50 [43]: 100 nM
- GI50 [44]: 80 nM
- GI50 [45]: 950 nM
- GI50 [46]: 100 nM
- GI50 [47]: 70 nM
- GI50 [48]: 490 nM
- GI50 [49]: 270 nM
- GI50 [50]: 320 nM
- GI50 [51]: 110 nM
- GI50 [52]: 210 nM
- GI50 [53]: 30 nM
- GI50 [54]: 510 nM
- GI50 [55]: 330 nM
- GI50 [56]: 230 nM
- GI50 [57]: 60 nM
- GI50 [58]: 50 nM
- GI50 [59]: 190 nM
- GI50 [60]: 380 nM

SMILES: CCCCCCCCCCCCOS(=O)(=O)[O-].[Na+] [SLS 0.5%, sodium laurylsulphate]
- Type of Effect [61]: Strong irritant

SMILES: O=c1[nH]cc(F)c(=O)[nH]1 [Compound 5-FU, 5-fluorouracil]
- GI50 [1]: 180 nM
- GI50 [3]: 390 nM
- GI50 [4]: 77900 nM
- GI50 [5]: 54700 nM
- GI50 [6]: 330 nM
- GI50 [7]: 50 nM
- GI50 [8]: 7270 nM
- GI50 [9]: 20100 nM
- GI50 [10]: 150 nM
- GI50 [11]: 50 nM
- GI50 [12]: 220 nM
- GI50 [13]: 110 nM
- GI50 [14]: 170 nM
- GI50 [15]: 210 nM
- GI50 [16]: 920 nM
- GI50 [62]: 260 nM
- GI50 [17]: 1620 nM
- GI50 [19]: 60 nM
- GI50 [20]: 3810 nM
- GI50 [21]: 78700 nM
- GI50 [22]: 920 nM
- GI50 [23]: 17000 nM
- GI50 [24]: 240 nM
- GI50 [25]: 50 nM
- GI50 [26]: 980 nM
- GI50 [27]: 70 nM
- GI50 [28]: 56700 nM
- GI50 [29]: 1030 nM
- GI50 [30]: 460 nM
- GI50 [31]: 3550 nM
- GI50 [32]: 520 nM
- GI50 [33]: 7070 nM
- GI50 [34]: 1220 nM
- GI50 [35]: 10 nM
- GI50 [36]: 4430 nM
- GI50 [37]: 10900 nM
- GI50 [38]: 1740 nM
- GI50 [39]: 310 nM
- GI50 [40]: 21800 nM
- GI50 [41]: 5770 nM
- GI50 [42]: 720 nM
- GI50 [43]: 350 nM
- GI50 [44]: 270 nM
- GI50 [45]: 70 nM
- GI50 [46]: 2610 nM
- GI50 [47]: 490 nM
- GI50 [63]: 1120 nM
- GI50 [48]: 1420 nM
- GI50 [49]: 880 nM
- GI50 [50]: 2360 nM
- GI50 [51]: 360 nM
- GI50 [52]: 1360 nM
- GI50 [53]: 70 nM
- GI50 [54]: 6600 nM
- GI50 [55]: 9770 nM
- GI50 [56]: 10600 nM
- GI50 [57]: 8120 nM
- GI50 [59]: 7030 nM
- GI50 [60]: 6970 nM
